{"source": "ChEMBL document CHEMBL5465560", "about": "“Selectivity Literature for EUbOPEN Chemogenomic Library” (2024)", "key": {"[1]": {"molecular_target": "T1, Serine/threonine-protein kinase LATS1 (Homo sapiens) (UniProt O95835)", "T1 sequence (whole entry)": "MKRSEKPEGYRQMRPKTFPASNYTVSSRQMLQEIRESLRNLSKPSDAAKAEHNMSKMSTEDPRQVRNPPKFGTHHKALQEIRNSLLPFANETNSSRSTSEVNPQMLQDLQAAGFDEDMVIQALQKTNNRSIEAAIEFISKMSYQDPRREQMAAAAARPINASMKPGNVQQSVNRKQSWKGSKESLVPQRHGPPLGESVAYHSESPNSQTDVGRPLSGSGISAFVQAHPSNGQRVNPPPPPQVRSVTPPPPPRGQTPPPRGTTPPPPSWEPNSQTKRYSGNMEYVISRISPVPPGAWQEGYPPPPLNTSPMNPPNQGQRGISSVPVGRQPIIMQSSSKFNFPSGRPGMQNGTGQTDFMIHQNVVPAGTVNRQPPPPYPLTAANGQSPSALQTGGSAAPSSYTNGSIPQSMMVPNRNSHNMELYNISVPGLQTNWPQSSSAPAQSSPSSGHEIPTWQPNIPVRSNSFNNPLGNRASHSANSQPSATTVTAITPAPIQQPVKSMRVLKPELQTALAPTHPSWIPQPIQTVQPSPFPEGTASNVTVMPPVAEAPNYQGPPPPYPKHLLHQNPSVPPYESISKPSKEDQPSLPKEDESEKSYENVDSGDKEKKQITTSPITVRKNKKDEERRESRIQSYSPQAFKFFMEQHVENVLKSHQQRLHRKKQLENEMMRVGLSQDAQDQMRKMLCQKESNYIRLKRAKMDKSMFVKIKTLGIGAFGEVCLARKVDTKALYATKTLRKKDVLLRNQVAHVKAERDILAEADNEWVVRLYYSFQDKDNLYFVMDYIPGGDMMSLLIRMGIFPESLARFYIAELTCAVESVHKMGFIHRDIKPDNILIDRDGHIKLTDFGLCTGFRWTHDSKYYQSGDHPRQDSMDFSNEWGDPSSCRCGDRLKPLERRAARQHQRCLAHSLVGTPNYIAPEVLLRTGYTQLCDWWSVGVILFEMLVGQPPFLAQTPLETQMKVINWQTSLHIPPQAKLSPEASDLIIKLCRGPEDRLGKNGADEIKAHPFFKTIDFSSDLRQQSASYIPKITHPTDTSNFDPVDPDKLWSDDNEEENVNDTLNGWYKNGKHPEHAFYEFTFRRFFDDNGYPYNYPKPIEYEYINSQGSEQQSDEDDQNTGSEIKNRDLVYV", "assay": "Selectivity interaction (Kinase panel (KiNativ target engagement assay in Jurkat cells)) EUB0001635a LATS1", "assay_type": "cell-based", "details": "at 1 µM"}, "[2]": {"molecular_target": "Proto-oncogene tyrosine-protein kinase ROS (Homo sapiens) (UniProt P08922)", "sequence (P08922 whole entry)": "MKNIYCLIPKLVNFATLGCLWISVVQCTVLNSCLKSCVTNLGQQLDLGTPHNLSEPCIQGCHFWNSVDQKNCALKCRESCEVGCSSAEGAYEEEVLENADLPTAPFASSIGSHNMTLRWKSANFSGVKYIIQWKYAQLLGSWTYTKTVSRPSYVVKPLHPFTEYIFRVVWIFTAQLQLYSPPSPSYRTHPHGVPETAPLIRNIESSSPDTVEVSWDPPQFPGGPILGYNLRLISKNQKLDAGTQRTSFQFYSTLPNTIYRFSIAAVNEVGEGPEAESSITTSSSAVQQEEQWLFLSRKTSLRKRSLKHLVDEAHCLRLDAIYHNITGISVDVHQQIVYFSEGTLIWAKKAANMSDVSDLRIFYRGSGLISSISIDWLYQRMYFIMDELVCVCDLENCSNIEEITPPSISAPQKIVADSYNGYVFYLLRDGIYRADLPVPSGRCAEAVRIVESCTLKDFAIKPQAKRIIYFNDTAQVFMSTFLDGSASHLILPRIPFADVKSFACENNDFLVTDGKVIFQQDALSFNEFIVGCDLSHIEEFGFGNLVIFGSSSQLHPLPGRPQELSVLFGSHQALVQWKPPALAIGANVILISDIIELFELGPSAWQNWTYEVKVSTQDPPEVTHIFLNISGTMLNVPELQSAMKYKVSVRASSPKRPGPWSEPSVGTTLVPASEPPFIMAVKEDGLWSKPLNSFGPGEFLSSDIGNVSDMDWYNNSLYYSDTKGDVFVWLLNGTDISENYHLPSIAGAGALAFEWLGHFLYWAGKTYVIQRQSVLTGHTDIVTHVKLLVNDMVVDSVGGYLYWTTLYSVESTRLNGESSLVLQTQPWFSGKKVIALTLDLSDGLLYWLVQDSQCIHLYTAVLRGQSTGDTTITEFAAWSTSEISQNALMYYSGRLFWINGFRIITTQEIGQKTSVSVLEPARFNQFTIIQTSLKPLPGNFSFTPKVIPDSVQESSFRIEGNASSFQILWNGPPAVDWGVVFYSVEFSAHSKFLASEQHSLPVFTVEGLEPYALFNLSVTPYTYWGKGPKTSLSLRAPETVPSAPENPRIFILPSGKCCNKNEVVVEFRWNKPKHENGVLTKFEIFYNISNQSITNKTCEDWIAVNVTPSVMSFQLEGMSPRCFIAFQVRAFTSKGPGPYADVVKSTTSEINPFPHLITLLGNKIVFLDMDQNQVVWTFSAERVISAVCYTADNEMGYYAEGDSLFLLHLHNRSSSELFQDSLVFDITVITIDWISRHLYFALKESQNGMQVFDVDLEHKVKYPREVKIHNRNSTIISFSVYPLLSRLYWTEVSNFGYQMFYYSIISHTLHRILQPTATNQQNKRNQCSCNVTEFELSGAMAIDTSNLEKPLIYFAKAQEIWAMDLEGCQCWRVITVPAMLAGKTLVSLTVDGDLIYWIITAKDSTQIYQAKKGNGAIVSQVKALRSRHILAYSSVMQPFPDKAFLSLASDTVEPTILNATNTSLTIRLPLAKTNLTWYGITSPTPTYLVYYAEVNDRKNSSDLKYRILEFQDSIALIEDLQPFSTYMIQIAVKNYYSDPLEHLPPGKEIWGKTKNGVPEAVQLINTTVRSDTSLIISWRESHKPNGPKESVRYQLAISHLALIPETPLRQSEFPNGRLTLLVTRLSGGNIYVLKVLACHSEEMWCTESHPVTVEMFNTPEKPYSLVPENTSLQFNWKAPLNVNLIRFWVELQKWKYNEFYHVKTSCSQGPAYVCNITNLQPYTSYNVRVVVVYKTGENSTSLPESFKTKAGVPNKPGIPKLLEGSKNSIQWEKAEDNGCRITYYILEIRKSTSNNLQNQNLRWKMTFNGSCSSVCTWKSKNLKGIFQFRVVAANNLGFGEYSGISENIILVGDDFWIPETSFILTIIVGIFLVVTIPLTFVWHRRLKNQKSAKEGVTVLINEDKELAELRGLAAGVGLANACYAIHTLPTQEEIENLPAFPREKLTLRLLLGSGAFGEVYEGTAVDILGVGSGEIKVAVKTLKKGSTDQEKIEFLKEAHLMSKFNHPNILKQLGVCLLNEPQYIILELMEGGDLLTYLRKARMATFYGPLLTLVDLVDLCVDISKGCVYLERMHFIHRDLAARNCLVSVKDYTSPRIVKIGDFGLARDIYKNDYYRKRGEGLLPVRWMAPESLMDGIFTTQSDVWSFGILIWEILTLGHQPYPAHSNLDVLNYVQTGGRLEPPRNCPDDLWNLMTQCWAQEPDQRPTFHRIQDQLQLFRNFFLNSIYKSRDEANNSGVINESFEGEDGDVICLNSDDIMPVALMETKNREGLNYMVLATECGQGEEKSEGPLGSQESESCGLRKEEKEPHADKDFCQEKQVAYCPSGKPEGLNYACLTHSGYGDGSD", "assay": "Selectivity interaction (KinomeScan (DiscoverX)) EUB0000045b ROS1"}, "[3]": {"molecular_target": "T2, Serine/threonine-protein kinase NLK (Homo sapiens) (UniProt Q9UBE8)", "T2 sequence (whole entry)": "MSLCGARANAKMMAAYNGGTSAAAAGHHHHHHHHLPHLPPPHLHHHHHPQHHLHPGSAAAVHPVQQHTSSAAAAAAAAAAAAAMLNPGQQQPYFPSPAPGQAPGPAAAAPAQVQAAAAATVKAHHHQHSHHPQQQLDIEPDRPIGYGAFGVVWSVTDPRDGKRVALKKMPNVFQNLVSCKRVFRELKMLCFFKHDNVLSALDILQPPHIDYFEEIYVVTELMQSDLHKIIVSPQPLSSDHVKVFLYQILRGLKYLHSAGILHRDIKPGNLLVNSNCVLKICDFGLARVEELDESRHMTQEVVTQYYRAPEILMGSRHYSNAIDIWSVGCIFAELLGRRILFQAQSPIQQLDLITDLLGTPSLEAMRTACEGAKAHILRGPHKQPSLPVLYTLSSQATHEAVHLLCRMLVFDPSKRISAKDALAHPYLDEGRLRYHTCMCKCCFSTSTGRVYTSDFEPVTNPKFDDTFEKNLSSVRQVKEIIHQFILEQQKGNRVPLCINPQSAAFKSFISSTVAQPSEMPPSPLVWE", "assay": "Selectivity interaction (KinomeScan (DiscoverX)) EUB0001868a NLK", "details": "at 1 µM"}, "[4]": {"molecular_target": "T3, Serine/threonine-protein kinase Nek1 (Homo sapiens) (UniProt Q96PY6)", "T3 sequence (whole entry)": "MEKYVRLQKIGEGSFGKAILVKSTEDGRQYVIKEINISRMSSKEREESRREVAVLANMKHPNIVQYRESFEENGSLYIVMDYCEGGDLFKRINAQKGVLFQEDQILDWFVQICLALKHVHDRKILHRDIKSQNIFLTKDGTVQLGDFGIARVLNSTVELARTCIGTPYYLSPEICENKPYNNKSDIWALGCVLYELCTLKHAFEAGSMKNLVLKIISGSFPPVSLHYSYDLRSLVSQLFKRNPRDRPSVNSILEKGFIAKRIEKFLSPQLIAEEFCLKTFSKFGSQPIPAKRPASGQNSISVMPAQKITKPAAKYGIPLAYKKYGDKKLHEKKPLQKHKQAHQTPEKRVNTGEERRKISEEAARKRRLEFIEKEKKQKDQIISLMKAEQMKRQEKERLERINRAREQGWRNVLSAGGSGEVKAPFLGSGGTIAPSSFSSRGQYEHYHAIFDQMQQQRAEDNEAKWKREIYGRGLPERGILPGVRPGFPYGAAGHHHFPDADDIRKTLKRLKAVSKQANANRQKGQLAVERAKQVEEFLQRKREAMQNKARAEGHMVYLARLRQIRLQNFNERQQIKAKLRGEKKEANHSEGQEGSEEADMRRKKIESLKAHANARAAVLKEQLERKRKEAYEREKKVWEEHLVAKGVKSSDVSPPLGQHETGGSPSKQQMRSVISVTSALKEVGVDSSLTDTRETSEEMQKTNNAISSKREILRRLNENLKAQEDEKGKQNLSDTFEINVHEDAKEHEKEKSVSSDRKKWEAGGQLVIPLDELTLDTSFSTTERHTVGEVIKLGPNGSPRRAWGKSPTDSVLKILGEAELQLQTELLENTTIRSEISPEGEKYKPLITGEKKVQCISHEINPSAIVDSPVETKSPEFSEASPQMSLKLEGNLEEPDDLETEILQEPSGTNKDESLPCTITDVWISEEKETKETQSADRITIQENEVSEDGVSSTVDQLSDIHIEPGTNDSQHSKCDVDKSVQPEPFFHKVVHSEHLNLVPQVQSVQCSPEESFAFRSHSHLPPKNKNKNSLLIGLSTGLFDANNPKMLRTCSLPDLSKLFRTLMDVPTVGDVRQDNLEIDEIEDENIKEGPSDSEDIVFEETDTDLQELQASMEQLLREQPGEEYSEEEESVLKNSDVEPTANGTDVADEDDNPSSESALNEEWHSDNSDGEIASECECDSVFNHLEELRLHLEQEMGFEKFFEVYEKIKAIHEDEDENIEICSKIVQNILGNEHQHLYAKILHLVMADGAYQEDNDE", "assay": "Selectivity interaction (SelectScreen profiling (Invitrogen)) EUB0000607a NEK1", "details": "at 2 µM"}}, "data": [{"smiles": "C=CC(=O)Nc1ccc(C(=O)Nc2[nH]nc3c2CN(C(=O)N[C@H](CN(C)C)c2ccccc2)C3(C)C)cc1", "values": [{"measurement": "% of engagement", "setting": "[1]", "value": 7.2, "unit": "%"}]}, {"smiles": "C=CC(=O)Nc1cc(-n2c(=O)ccc3cnc4ccc(-c5ccc(NS(C)(=O)=O)cc5)cc4c32)ccc1C", "values": [{"measurement": "% of control", "setting": "[2]; at 1 µM", "value": 81, "unit": "%"}, {"measurement": "% of control", "setting": "[2]; at 10 µM", "value": 83, "unit": "%"}]}, {"smiles": "Cc1cc(-c2ccnc(Nc3cnn(C)c3)n2)ccc1CNC(=O)N1CC(OC(C)C)C1", "values": [{"measurement": "% of control", "setting": "[3]", "value": 46, "unit": "%"}]}, {"smiles": "CNC(=O)Nc1ccc(-c2nc(N3CC4CCC(C3)O4)c3cnn(C4CCC5(CC4)OCCO5)c3n2)cc1", "values": [{"measurement": "% of inhibition", "setting": "[4]", "value": 7, "unit": "%"}]}]}
